Results taken from patent publication US7713937B2, “Synthetic peptide amides and dimeric forms thereof” (Cara Therapeutics, Inc., priority 2006, dated 2010).
Several values for one entry are separate records, joined by “and”; a condition that tells them apart may be missing. Identical values can stand only once. Square brackets hold non-standard residues; d marks the D form. Peptide text beside a SMILES is read from it. * marks the point of attachment. Piperidinyl(4-(1-Pro-OH)) = O=C(O)[C@@H]1CCCN1C1CCN(*)CC1; d(hArg) = N=C(N)NCCCC[C@@H](N)C(=O)O

How the values were obtained:
[1] = molecular target: T1, mouse kappa opioid receptor (mKOR) (Mus musculus, UniProt P33534); test: cell-based; settings: for Emax: read-out: mKOR Efficacy(%)
T1 construct: Stimulation of Endogenous Mouse Kappa-Opioid Receptor in R1.G1 Cells; host or cells: R1.G1 mouse thymoma cells
T1 sequence (P33534 whole entry): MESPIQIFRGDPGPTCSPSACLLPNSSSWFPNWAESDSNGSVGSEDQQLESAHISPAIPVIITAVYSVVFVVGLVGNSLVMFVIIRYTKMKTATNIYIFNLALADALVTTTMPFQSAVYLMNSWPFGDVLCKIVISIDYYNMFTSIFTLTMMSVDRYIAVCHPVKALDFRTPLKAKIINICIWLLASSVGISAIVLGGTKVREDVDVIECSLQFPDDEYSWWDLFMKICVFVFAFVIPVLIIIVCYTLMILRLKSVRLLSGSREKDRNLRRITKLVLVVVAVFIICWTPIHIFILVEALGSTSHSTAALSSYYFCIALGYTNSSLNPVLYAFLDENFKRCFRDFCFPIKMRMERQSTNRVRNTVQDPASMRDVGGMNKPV

[2] = molecular target: T2, human kappa opioid receptor (hKOR) (Homo sapiens, UniProt P41145); test: cell-based; settings: for Emax: HEK293, read-out: hKOR Efficacy(%)
T2 construct: expressed in transfected cells; host or cells: HEK-293 cells, transient transfection with Fugene6
T2 sequence (P41145 whole entry): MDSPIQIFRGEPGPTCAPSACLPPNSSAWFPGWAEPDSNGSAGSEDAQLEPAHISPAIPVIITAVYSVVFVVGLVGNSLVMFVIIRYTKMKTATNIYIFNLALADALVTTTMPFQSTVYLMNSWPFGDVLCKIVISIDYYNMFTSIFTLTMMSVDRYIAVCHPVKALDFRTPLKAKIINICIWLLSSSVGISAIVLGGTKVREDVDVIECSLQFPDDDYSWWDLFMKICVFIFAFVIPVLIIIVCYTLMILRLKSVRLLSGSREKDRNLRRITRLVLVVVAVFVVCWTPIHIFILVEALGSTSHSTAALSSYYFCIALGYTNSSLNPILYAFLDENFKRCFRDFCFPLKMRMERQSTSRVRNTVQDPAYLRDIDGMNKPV

ICR mice = test: Acetic acid-induced writhing assay in mice; assay type: in vivo, mouse; settings: for ED50 (mg/kg, iv, 15 min post-dose): mice
[3] = tested on: albino New Zealand strain rabbits; test: Capsaicin-induced ocular pain, palpebral opening; assay type: in vivo, rabbit; settings: Table VI, 10 mg/ml instilled, 10-30 min. post capsaicin, five animals
[4] = Pharmacokinetics in cynomolgus monkeys, plasma half life; settings: male, cynomolgus monkey, iv
human mu opioid receptor = molecular target: T3, human mu opioid receptor (Homo sapiens, UniProt P35372); test: Similar assay for potency on the human mu opioid receptor; assay type: cell-based
T3 construct: expressed in transfected cells
T3 sequence (P35372 whole entry): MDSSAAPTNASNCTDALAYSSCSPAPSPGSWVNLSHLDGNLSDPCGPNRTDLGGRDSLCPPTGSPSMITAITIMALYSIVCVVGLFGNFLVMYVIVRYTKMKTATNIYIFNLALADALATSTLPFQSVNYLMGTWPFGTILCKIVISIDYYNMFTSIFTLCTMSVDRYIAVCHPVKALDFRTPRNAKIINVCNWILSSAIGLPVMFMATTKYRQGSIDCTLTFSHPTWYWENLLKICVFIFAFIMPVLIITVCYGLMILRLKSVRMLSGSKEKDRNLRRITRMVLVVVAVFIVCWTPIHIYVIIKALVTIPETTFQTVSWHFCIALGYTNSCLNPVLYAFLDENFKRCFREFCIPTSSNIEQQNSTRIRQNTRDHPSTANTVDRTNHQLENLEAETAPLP
Method: Synthetic peptide amides of the invention were tested in a similar assay for potency on the human mu opioid receptor.
The synthetic peptide amide (53) was tested in a similar assay for potency on the human mu opioid receptor.

CYP2D6 = CYP2D6 (Homo sapiens, UniProt P10635); test: Cytochrome P450 CYP2D6 inhibition in human liver microsomes; settings: percent remaining CYP activity, 10 μM test compound, (54) in Expt 1 and Expt 2
Sequence of CYP2D6 (P10635 whole entry): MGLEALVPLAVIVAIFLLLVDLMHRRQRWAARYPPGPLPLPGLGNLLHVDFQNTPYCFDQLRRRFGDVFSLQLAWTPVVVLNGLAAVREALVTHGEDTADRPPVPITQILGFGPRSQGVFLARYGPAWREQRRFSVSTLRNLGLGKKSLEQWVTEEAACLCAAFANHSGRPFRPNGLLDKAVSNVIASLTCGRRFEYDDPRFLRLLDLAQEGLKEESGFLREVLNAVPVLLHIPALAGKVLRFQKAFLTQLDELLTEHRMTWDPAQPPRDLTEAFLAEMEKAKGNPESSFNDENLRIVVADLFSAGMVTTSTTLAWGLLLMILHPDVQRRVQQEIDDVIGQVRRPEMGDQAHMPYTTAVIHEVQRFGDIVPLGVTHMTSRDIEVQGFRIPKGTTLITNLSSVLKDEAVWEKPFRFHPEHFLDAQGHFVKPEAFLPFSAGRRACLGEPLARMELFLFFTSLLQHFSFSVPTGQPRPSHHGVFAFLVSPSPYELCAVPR

CYP3A4 = CYP3A4 (Homo sapiens, UniProt P08684); test: Cytochrome P450 CYP3A4 inhibition in human liver microsomes (midazolam); settings: percent remaining CYP activity, 10 μM test compound, (54) in Expt 1 and Expt 2
Sequence of CYP3A4 (P08684 whole entry): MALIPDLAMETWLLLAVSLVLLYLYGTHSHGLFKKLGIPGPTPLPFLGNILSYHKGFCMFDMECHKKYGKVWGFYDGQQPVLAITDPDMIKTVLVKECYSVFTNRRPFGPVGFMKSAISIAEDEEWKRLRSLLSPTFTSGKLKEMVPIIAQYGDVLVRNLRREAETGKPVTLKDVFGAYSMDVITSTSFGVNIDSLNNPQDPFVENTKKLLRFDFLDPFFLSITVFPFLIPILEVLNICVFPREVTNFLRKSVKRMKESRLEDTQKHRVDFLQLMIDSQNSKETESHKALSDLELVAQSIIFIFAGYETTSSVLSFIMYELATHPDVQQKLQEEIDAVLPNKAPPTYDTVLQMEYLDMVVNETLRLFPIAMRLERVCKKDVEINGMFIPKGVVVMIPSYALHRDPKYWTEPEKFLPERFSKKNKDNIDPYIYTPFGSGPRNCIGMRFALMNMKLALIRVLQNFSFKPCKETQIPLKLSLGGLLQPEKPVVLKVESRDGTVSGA

[5] = Inhibition of locomotion in mice (locomotion reduction assay, sedation); settings: mouse, in vivo, sc, subcutaneous, sedative effect
Method: To determine the potential sedative effect of test compounds, the extent of locomotion after the administration of the test compound or vehicle control can be determined and compared with a specialized apparatus designed for this purpose (Opto-Varimex Activity Meter). At the start of each experiment, each mouse was weighed and examined to determine good health. […] The subcutaneous injection was performed in the back of the neck of the mouse, pinched in a “tent” to allow proper access for the syringe needle. After injection, each animal was placed individually in Plexiglas boxes (43 cm×43 cm) inside the Opto-Varimex Activity Meter apparatus. Before the animal was placed in the apparatus, a thin layer of SANI-CHIPS rodent bedding was placed on the bottom of the Plexiglas box to provide a comfortable environment. Each Opto-Varimex Activity Meter apparatus was then turned on and data acquisition begun by the ATM3 Auto-Track System. The data were processed and results expressed in the same way as described for the writhing assay data above.

CYP2C19 = CYP2C19 (Homo sapiens, UniProt P33261); test: Cytochrome P450 CYP2C19 inhibition in human liver microsomes; settings: percent remaining CYP activity, 10 μM test compound, (54) in Expt 1 and Expt 2
Sequence of CYP2C19 (P33261 whole entry): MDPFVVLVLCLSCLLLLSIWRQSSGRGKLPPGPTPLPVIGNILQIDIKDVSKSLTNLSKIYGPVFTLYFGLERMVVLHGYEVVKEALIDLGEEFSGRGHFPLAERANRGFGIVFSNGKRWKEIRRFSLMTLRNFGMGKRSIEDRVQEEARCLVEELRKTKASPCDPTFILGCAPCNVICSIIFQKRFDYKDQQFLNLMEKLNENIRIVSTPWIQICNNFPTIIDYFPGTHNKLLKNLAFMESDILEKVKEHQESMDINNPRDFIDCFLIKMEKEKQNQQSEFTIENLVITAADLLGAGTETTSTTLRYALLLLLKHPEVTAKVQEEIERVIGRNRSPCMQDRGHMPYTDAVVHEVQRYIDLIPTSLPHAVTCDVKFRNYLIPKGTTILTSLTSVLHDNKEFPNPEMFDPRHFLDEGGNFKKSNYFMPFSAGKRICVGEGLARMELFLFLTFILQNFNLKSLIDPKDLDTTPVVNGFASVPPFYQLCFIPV

CYP1A = test: Cytochrome P450 CYP1A inhibition in human liver microsomes; assay type: in vitro ADME; settings: percent remaining CYP activity, 10 μM test compound, (54) in Expt 1 and Expt 2
Method: Inhibition of cytochrome P450 oxidase isozymes CYP1A, CYP2C9, CYP2C19, CYP2D6 and CYP3A4 by synthetic peptide amide compounds of the invention was determined according to the following methods performed by Cerep (Seattle, Wash.):
In the cytochrome P450 CYP1A assay, human liver microsomes (0.2 mg/ml protein) were incubated for 15 minutes at 37° C. with 10 μM test compound, 1 μM ethoxyresorufin, 1.3 mM NADP, 3.3 mM glucose-6-phosphate and 0.4 U/ml glucose-6-phosphate dehydrogenase. In the absence of test compound, the ethoxyresorufin added as substrate is oxidized to resorufin, and in the presence of an inhibitor of the CYP isozyme, the amount of resorufin produced is reduced. Furafylline was used as a reference inhibitor.
In each assay, the percent inhibition of the cytochrome P450 CYP P450 isozyme was determined as one hundred times the ratio of (1-minus the amount of product in the sample in the presence of the test compound) divided by the amount of product in the sample containing untreated isozyme.

CYP2C9 = CYP2C9 (Homo sapiens, UniProt P11712); test: Cytochrome P450 CYP2C9 inhibition in human liver microsomes; settings: percent remaining CYP activity, 10 μM test compound, (54) in Expt 1 and Expt 2
Sequence of CYP2C9 (P11712 whole entry): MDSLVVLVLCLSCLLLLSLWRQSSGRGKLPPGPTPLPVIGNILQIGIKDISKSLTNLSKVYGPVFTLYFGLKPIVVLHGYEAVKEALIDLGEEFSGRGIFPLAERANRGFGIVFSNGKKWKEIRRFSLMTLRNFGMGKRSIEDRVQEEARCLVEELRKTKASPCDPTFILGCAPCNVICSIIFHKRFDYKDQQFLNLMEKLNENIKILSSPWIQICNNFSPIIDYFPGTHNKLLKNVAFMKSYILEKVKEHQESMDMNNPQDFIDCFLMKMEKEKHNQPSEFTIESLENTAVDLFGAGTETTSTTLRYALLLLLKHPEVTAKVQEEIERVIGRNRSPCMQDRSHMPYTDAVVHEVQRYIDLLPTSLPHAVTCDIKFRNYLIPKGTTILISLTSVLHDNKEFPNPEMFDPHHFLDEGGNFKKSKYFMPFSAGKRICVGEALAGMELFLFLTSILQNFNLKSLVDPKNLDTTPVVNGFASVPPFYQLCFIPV

[6] = Caco-2 (TC7 subclone) membrane permeability, apical-to-basolateral; settings: human

Structure (SMILES)	EC50 [1]	Emax [1]	EC50 [2]	Emax [2]	further results
CC(C)C[C@@H](NC(=O)[C@@H](Cc1ccccc1)NC(=O)[C@H](N)Cc1ccccc1)C(=O)N[C@H](CCCCN)C(=O)N1CCC(N)(C(=O)O)CC1 [Compound (2), D-Phe-D-Phe-D-Leu-D-Lys-[ω(4-aminopiperidine-4-carboxylic acid)]-OH]	0.048 nM	96%	0.16 nM	99%	ED50 (mg/kg, iv, 15 min post-dose) (ICR mice; iv): 0.07 mg/kg; % MPE (240 min post-ED90) (ICR mice; iv, 240 min post-ED90): 81 ± 4%; % MPE (300 min post-ED90) (ICR mice; iv, 300 min post-ED90): 84 ± 4%
CC(C)C[C@@H](NC(=O)[C@@H](Cc1ccccc1)NC(=O)[C@H](N)Cc1ccccc1)C(=O)N[C@H](CCCCN)C(=O)N1CCC(N2CCC[C@H]2C(=O)O)CC1 [Compound (4), D-Phe-D-Phe-D-Leu-D-Lys-[N-(4-piperidinyl)-L-proline]-OH]	0.075 nM	94%	0.15 nM	92%	Mean (% Control) palpebral opening [3]: 56.7 % Control
CC(C)C[C@@H](NC(=O)[C@@H](Cc1ccccc1)NC(=O)[C@H](N)Cc1ccccc1)C(=O)N[C@H](CCCCNC(=N)N)C(=O)N1CCC(N2CCC[C@H]2C(=O)O)CC1 [Compound (5), D-Phe-D-Phe-D-Leu-D-Har-[N-(4-piperidinyl)-L-proline]-OH] (H-[dF][dF][dL][d(hArg)]-{Piperidinyl(4-(1-Pro-OH))})	0.034 nM	89%	0.17 nM	98%	ED50 (mg/kg, iv, 15 min post-dose) (ICR mice; iv): 0.01 mg/kg; % MPE (180 min post-ED90) (ICR mice; iv, 180 min post-ED90): 54 ± 10%
C/N=C(/N)N1CCCN(C(=O)[C@@H](CCCN)NC(=O)[C@@H](CC(C)C)NC(=O)[C@@H](Cc2ccccc2)NC(=O)[C@H](N)Cc2ccccc2)CC1 [Compound (52), D-Phe-D-Phe-D-Leu-D-Orn-[4-(N-methyl)amidino-homopiperazine amide]]	0.035 nM	101%	0.18 nM	96%	half-life [4]: 69 min
CC(C)C[C@@H](NC(=O)[C@@H](Cc1ccccc1)NC(=O)[C@H](N)Cc1ccccc1)C(=O)N[C@H](CCCN)C(=O)N1CCCN(C(=N)N)CC1 [Compound (53), D-Phe-D-Phe-D-Leu-D-Orn-[4-amidinohomopiperazine amide]]	0.03 nM	–	0.15 nM	103%	EC50 (human mu opioid receptor): ≥ 1000 nM
CC(C)C[C@@H](NC(=O)[C@@H](Cc1ccccc1)NC(=O)[C@H](N)Cc1ccccc1)C(=O)N[C@H](CCCN)C(=O)N1CCCN(C2=NCCN2)CC1 [Compound (54), D-Phe-D-Phe-D-Leu-D-Orn-[4-(4,5-dihydro-1H-imidazol-2-yl)homopiperazine amide]]	0.056 nM	99%	0.13 nM	90%	Percent Activity of Cytochrome P450 CYP2D6 (CYP2D6): 98.4% and 98.2%; Percent Activity of Cytochrome P450 CYP3A4 (CYP3A4): 94.7% and 95.9%; ED50 [5]: 3.17 mg/kg; ED50 in the acetic acid-induced writhing assay (ICR mice; subcutaneous, ICR mice): 74 µg/kg; Percent Activity of Cytochrome P450 CYP2C19 (CYP2C19): 94.1% and 97.8%; Percent Activity of Cytochrome P450 CYP1A (CYP1A): 97.1% and 95.8%; Percent Activity of Cytochrome P450 CYP2C9 (CYP2C9): 99.2% and 98.2%
CNC(=C[N+](=O)[O-])NCCSCc1ccc(CN(C)C)o1 [Ranitidine, ranitidine]	–	–	–	–	Papp A→B at 60 min, 10 μM [6]: 0.5 ×10⁻⁶ cm/s
